From patent publication US20250388535A1, “SULFONATED AND SULFATED ARYL-ALKYL COMPOUNDS USEFUL AS SURFACTANTS” (SPECIALTY OPERATIONS FRANCE, priority 2022, published 2025)

Assay: Surface activity: critical micelle concentration and surface tension by force tensiometer
Type: physicochemical
Conditions: for CMC / Surface tension (at CMC): aqueous solution, room temperature; for Cross-sectional area: area occupied by the surfactant molecule at the surface; for Cross-sectional area / Surface excess: from Gibbs adsorption equation
Experimental: Critical micelle concentrations (CMC) and surface tensions (ST) were measured for aqueous solutions of the surfactants of the present invention at room temperature using a force tensiometer (Sigma 700/701). Plots of surface tension against surfactant concentration were drawn allowing to determine CMC and surface tension at the CMC. Using the Gibbs adsorption equation it is possible to determine the surface excess as well as the area occupied by the surfactant molecule at the surface (as a reference see for example “Industrial Utilization of Surfactants: principles and practice”, M. J. Rosen and M. Dahanayake, 2000, ISBN 1893997111) which are important parameters to characterize a surfactant.

CCCCCCCCCCCCCCC(C(=O)c1ccccc1)S(=O)(=O)[O-].[Na+] (centres unmarked) [PAKS-C16]
CMC: 0.23 mM
Surface tension (at CMC): 44 mN/m
Cross-sectional area: 0.64 nm^2
Surface excess: 0.0026 mmol/m^2

CCCCCCCCCCCCCCC(C(O)c1ccccc1)S(=O)(=O)[O-].[Na+] (centres unmarked) [PAS-C16]
CMC: 0.22 mM
Surface tension (at CMC): 36 mN/m
Cross-sectional area: 0.53 nm^2
Surface excess: 0.0031 mmol/m^2
